Source: ChEMBL document CHEMBL4811289, “Antibacterial and Cytotoxic Phenyltetracenoid Polyketides from Streptomyces morookaense” (J Nat Prod, 2021)
Converted amounts (≈) assume the structure as drawn. “And” between values parts separate entries of the source, which are not always exact repeats. Equal entries are not always repeated.

Legend:
Staphylococcus aureus [1] = test: Antibacterial activity against methicillin-resistant Staphylococcus aureus ATCC 6548 incubated for 6 to 8 hrs by MABA; format: functional; settings: time 6-8 hrs
Staphylococcus aureus [2] = test: Antibacterial activity against methicillin-sensitive Staphylococcus aureus incubated for 6 to 8 hrs by MABA; format: functional; settings: time 6-8 hrs
Enterococcus faecium [3] = test: Antibacterial activity against vancomycin-sensitive Enterococcus faecium incubated for 6 to 8 hrs by MABA; format: functional; settings: time 6-8 hrs
A549 = test: Cytotoxicity against human A549 cells assessed as reduction in cell viability after 72 hrs by MTT assay; format: functional, cell-based
HeLa = test: Cytotoxicity against human HeLa cells assessed as reduction in cell viability after 72 hrs by MTT assay; format: functional, cell-based
HepG2 = test: Cytotoxicity against human HepG2 cells assessed as reduction in cell viability after 72 hrs by MTT assay; format: functional, cell-based
MCF7 = test: Cytotoxicity against human MCF7 cells assessed as reduction in cell viability after 72 hrs by MTT assay; format: functional, cell-based
Vero = test: Cytotoxicity against African green monkey Vero cells assessed as reduction in cell viability after 72 hrs by MTT assay; format: cell-based, Chlorocebus sabaeus
Enterococcus faecium [4] = test: Antibacterial activity against vancomycin-resistant Enterococcus faecium incubated for 6 to 8 hrs by MABA; format: functional; settings: time 6-8 hrs
[5] = Chlorocebus sabaeus, Vero, 72 h

SMILES	MIC (Staphylococcus aureus [1]) [µg/mL]	MIC (Staphylococcus aureus [2]) [µg/mL]	MIC (Enterococcus faecium [3]) [µg/mL]	IC50 (A549; Homo sapiens, A549, 72 h) [µM]	IC50 (HeLa; Homo sapiens, HeLa, 72 h) [µM]	IC50 (HepG2; Homo sapiens, HepG2, 72 h) [µM]	IC50 (MCF7; Homo sapiens, MCF7, 72 h) [µM]	IC50 (Vero; [5]) [µM]	MIC (Enterococcus faecium [4]) [µg/mL]	IC50 (A549; a549) [µM]	IC50 (HeLa; hela) [µM]	IC50 (HepG2; hepg2) [µM]	IC50 (MCF7; mcf7) [µM]	IC50 (Vero; vero)
COc1cc(C)c(-c2cc(OC)cc3cc4c(c(O)c23)C(=O)c2c(cc(OC)c(Cl)c2O)C4(C)C)c(O)c1	> 10	> 10	> 10	7.6	4.6	8.3	7.5	8.2						
COc1cc(C)c(-c2cc(OC)c(Cl)c3cc4c(c(O)c23)C(=O)c2c(cc(OC)c(Cl)c2OC)C4(C)C)c(O)c1	> 10	> 10	> 10	8.3	15	15	13.1	9						
COc1cc(C)c(-c2cc(OC)c(Cl)c3cc4c(c(O)c23)C(=O)c2c(cc(O)c(Cl)c2O)C4(C)C)c(O)c1	1.25 (≈ 2.25 µM)	1.25 (≈ 2.25 µM)	2.5 (≈ 4.5 µM)	4.8	6	7.2	7.6	4.8	2.5 (≈ 4.5 µM)					
COc1cc(C)c(-c2cc(OC)cc3cc4c(c(O)c23)C(=O)c2c(cc(OC)c(Cl)c2OC)C4(C)C)c(O)c1	> 10	> 10	> 10	6.4	4.1	3.2	7.9	5.8						
COc1cc(C)c(-c2cc(OC)cc3cc4c(c(O)c23)C(=O)c2c(O)cc(O)cc2C4(C)C)c(O)c1	1.25 (≈ 2.57 µM)	1.25 (≈ 2.57 µM)	1.25 (≈ 2.57 µM)	3.3	4.7	4.4	7.1	6.4	1.25 (≈ 2.57 µM)					
COc1cc(C)c(-c2nc(C)cc3cc4c(c(O)c23)C(=O)c2c(cc(OC)c(Cl)c2OC)C4(C)C)c(OC)c1	> 10	> 10	> 10	14.5	3.4	9.5	4.4	6.1		12.6	3.3	8.7	8.7	10 µM
COc1cc(C)c(-c2nc(C)cc3cc4c(c(O)c23)C(=O)c2c(OC)cc(OC)cc2C4(C)C)c(OC)c1	> 10	> 10	> 10	5.1	3.7	3.4	5.9			6.6	4.6	3.8	11.2	2.7 µM and 7.5 µM
COc1cc(C)c(-c2cc(O)c(Cl)c3cc4c(c(O)c23)C(=O)c2c(cc(O)c(Cl)c2O)C4(C)C)c(O)c1	1.25 (≈ 2.31 µM)	1.25 (≈ 2.31 µM)	2.5 (≈ 4.62 µM)	8.9	11	9.4	21.7	47	5 (≈ 9.24 µM)					
COc1cc2c(c(O)c1Cl)C(=O)c1c(cc3cc(O)cc(-c4c(O)cc(O)c(Cl)c4C)c3c1O)C2(C)C				13.1	15	11.7	17.6	14.6						
COc1cc2c(c(O)c1Cl)C(=O)c1c(cc3c(Cl)c(O)cc(-c4c(C)c(Cl)c(O)c(Cl)c4O)c3c1O)C2(C)C				7	14.3	9.8	18.1	27.3						
COC1=CC(=O)C(c2cc(OC)cc3cc4c(c(O)c23)C(=O)c2c(cc(OC)c(Cl)c2O)C4(C)C)=C(C)C1=O	> 10	> 10	> 10	> 50	> 50	> 50	> 50	> 50						
COc1cc2c(c(O)c1Cl)C(=O)c1c(cc3cc(O)cc(-c4c(C)c(OC)c(OC)c(Cl)c4O)c3c1O)C2(C)C	1.25 (≈ 2.14 µM)	1.25 (≈ 2.14 µM)	2.5 (≈ 4.27 µM)	9.1	7.2	9.9	17.8	14.5	5 (≈ 8.54 µM)					
COc1c(Cl)c(C)c(-c2cc(O)cc3cc4c(c(O)c23)C(=O)c2c(cc(O)c(Cl)c2O)C4(C)C)c(O)c1Cl	1.25 (≈ 2.17 µM)	1.25 (≈ 2.17 µM)	1.25 (≈ 2.17 µM)	5	6	7.7	14.4	12.4	1.25 (≈ 2.17 µM)					
COc1cc(C)c(C(=O)c2c(CC(C)=O)cc3c(c2O)C(=O)c2c(OC)cc(OC)cc2C3(C)C)c(OC)c1	> 10	> 10	> 10	13.1	> 50	> 50	29.3	> 50						
COc1cc(C)c(-c2cc(O)cc3cc4c(c(O)c23)C(=O)c2c(cc(O)c(Cl)c2O)C4(C)C)c(O)c1	5 (≈ 9.86 µM)	5 (≈ 9.86 µM)	2.5 (≈ 4.93 µM)	13.3	15.2	11.9	40.3	33	10 (≈ 19.7 µM)					
